Results published in ChEMBL document CHEMBL4130461, “New chemotype of selective and potent inhibitors of human delta 24-dehydrocholesterol reductase” (Eur J Med Chem, 2017).
Where a name gives a salt, the structure may show the parent alone. Activity calls are given as the source filed them. The rule behind the calls is not given here.

Experiments:
[1] = Drug metabolism in human HL60 cells at 10 uM incubated for 24 hrs by GC-MS analysis; format: ADME, cell-based; conditions: hl-60, 24 h
Mus musculus [2] = assay: Liver toxicity in C57BL/6 mouse assessed as effect on ALT levels at 500 ug/day, iv dosed daily for 5 days; format: organism-based; conditions: in vivo, 120 h
Mus musculus [3] = assay: Induction of desmosterol accumulation in C57BL/6 mouse blood at 500 ug/day, iv dosed daily for 5 days byGC-MS analysis; format: functional
HL-60 [4] = assay: cells; conditions: Homo sapiens
Description: Cytotoxicity in human HL60 cells by MTT assay

Mus musculus [5] = assay: Liver toxicity in C57BL/6 mouse assessed as effect on AST levels at 500 ug/day, iv dosed daily for 5 days; format: organism-based; conditions: in vivo, 120 h
Mus musculus [6] = assay: Acute liver toxicity in C57BL/6 mouse at 500 ug/day, iv dosed daily for 5 days; format: organism-based; conditions: in vivo, 120 h
Mus musculus [7] = assay: Reduction in cholesterol level in C57BL/6 mouse blood at 500 ug/day, iv dosed daily for 5 days byGC-MS analysis; format: functional, organism-based
HL-60 [8] = assay: Induction of sterol accumulation in human HL60 cells assessed as desmosterol accumulation at 1 uM incubated for 24 hrs by GC-MS analysis; format: functional, cell-based
HL-60 [9] = assay: Extracellular drug accumulation in human HL60 cells at 10 uM incubated for 24 hrs by GC-MS analysis; format: ADME, cell-based; conditions: hl-60, 24 h
HL-60 [10] = assay: Intracellular drug accumulation in human HL60 cells at 10 uM incubated for 24 hrs by GC-MS analysis; format: ADME, cell-based; conditions: hl-60, 24 h
HL-60 [11] = assay: Induction of sterol accumulation in human HL60 cells assessed as desmosterol accumulation at 50 uM incubated for 24 hrs by GC-MS analysis; format: functional, cell-based
HL-60 [12] = assay: Cytotoxicity in human HL60 cells at 50 uM by MTT assay; format: cell-based; conditions: hl-60, 50 µM
HL-60 [13] = assay: Induction of sterol accumulation in human HL60 cells at 0.1 uM incubated for 24 hrs by GC-MS analysis; format: functional, cell-based
HL-60 [14] = assay: Induction of sterol accumulation in human HL60 cells at 1 uM incubated for 24 hrs by GC-MS analysis; format: functional, cell-based
HL-60 [15] = assay: Induction of sterol accumulation in human HL60 cells at 50 uM incubated for 24 hrs by GC-MS analysis; format: functional, cell-based
HL-60 [16] = assay: Induction of sterol accumulation in human HL60 cells assessed as holesta-7,24-dien-3beta-ol accumulation at 50 uM incubated for 24 hrs by GC-MS analysis; format: functional, cell-based
HL-60 [17] = assay: Induction of sterol accumulation in human HL60 cells assessed as lathosterol accumulation at 1 uM incubated for 24 hrs by GC-MS analysis; format: functional, cell-based
HL-60 [18] = assay: Induction of sterol accumulation in human HL60 cells assessed as zymosterol accumulation at 50 uM incubated for 24 hrs by GC-MS analysis; format: functional, cell-based
HL-60 [19] = assay: Induction of sterol accumulation in human HL60 cells assessed as holesta-7,24-dien-3beta-ol accumulation at 1 uM incubated for 24 hrs by GC-MS analysis; format: functional, cell-based
HL-60 [20] = assay: Induction of sterol accumulation in human HL60 cells assessed as zymosterol accumulation at 1 uM incubated for 24 hrs by GC-MS analysis; format: functional, cell-based
HL-60 [21] = assay: Induction of sterol accumulation in human HL60 cells assessed as lathosterol accumulation at 50 uM incubated for 24 hrs by GC-MS analysis; format: functional, cell-based
[22] = biological target: T1, Lathosterol oxidase (Homo sapiens) (UniProt O75845); assay: Inhibition of C5-desaturase in human HL60 cells assessed as compound level causing induction of sterol accumulation incubated for 24 hrs by GC-MS analysis; format: cell-based
T1 sequence (whole entry): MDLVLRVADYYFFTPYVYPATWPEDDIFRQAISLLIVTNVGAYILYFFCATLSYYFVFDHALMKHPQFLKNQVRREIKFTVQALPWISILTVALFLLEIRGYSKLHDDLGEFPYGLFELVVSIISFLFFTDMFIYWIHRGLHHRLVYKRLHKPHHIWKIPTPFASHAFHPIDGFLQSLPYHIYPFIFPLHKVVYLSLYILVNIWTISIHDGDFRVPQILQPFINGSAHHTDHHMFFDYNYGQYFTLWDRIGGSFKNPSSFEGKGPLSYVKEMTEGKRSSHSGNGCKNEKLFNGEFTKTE

IC50 (HL-60 [4]) [µM] | SMILES | Activity (HL-60 [8]) | Activity (HL-60 [11]) | Activity (HL-60 [12]) | further results
21 | CC(=O)O[C@H]1CC[C@@]2(C)[C@@H](CC=C3[C@@H]2CC[C@]2(C)[C@@H]([C@H](C)COC(=O)CN(C)C)CC[C@@H]32)C1 | Active | – | Toxic | –
> 50 | C/C=C(\C)C(=O)OC[C@@H](C)[C@H]1CC[C@H]2C3=CC[C@H]4C[C@@H](OC(C)=O)CC[C@]4(C)[C@H]3CC[C@]12C | Active | Active | – | –
– | CC(C)=CCC[C@@H](C)[C@H]1CC[C@H]2C3=CC[C@H]4C[C@@H](O)CC[C@]4(C)[C@H]3CC[C@]12C | – | – | – | Activity (HL-60 [13]): inactive
> 50 | CC(=O)O[C@H]1CC[C@@]2(C)[C@@H](CC=C3[C@@H]2CC[C@]2(C)[C@@H]([C@H](C)C(=O)N(C)C)CC[C@@H]32)C1 | – | – | – | Activity (HL-60 [14]): inactive; Activity (HL-60 [15]): inactive
> 50 | CONC(=O)[C@@H](C)[C@H]1CC[C@H]2C3=CC[C@H]4C[C@@H](OC(C)=O)CC[C@]4(C)[C@H]3CC[C@]12C | Active | Active | – | –
18 | CC(=O)O[C@H]1CC[C@@]2(C)[C@@H](CC=C3[C@@H]2CC[C@]2(C)[C@@H]([C@H](C)C(=O)NO)CC[C@@H]32)C1 | – | – | Toxic | Activity (HL-60 [14]): inactive
20 | CCC(=O)N(C)C[C@@H](C)[C@H]1CC[C@H]2C3=CC[C@H]4C[C@@H](OC(C)=O)CC[C@]4(C)[C@H]3CC[C@]12C | Active | – | Toxic | –
– | CC(C)CCC[C@@H](C)[C@H]1CC[C@H]2C3=CC[C@H]4C[C@@H](O)CC[C@]4(C)[C@H]3CC[C@]12C | – | – | – | Activity (HL-60 [13]): inactive
> 50 | CC(=O)O[C@H]1CC[C@@]2(C)[C@@H](CC=C3[C@@H]2CC[C@]2(C)[C@@H]([C@H](C)CO)CC[C@@H]32)C1 | Active | Active | – | –
13 | CCCC(=O)N(C)C[C@@H](C)[C@H]1CC[C@H]2C3=CC[C@H]4C[C@@H](OC(C)=O)CC[C@]4(C)[C@H]3CC[C@]12C | Active | – | Toxic | –
> 50 | CC(=O)O[C@H]1CC[C@@]2(C)[C@@H](CC=C3[C@@H]2CC[C@]2(C)[C@@H]([C@H](C)C=O)CC[C@@H]32)C1 | – | – | – | Activity (HL-60 [14]): inactive; Activity (HL-60 [15]): inactive
> 50 | C[C@H](CO)[C@H]1CC[C@H]2[C@@H]3CC=C4C[C@@H](O)CC[C@]4(C)[C@H]3CC[C@]12C | Active | Active | – | –
> 50 | CCCC(=O)NC[C@@H](C)[C@H]1CC[C@H]2C3=CC[C@H]4C[C@@H](OC(C)=O)CC[C@]4(C)[C@H]3CC[C@]12C | Active | – | – | Activity (HL-60 [16]): Active; Activity (HL-60 [17]): Active; Activity (HL-60 [18]): Active
– | CC(C)=CCC[C@@H](C)[C@H]1CC[C@H]2C3=C(CC[C@]12C)[C@@]1(C)CC[C@H](O)C[C@@H]1CC3 | – | – | – | Activity (HL-60 [13]): inactive
3 | C[C@H](/C=C/c1cc[n+](C)cc1)[C@H]1CC[C@H]2C3=CC[C@H]4C[C@@H](O)CC[C@]4(C)[C@H]3CC[C@]12C.[I-] | Active | – | Toxic | –
10 | CCN(CC)CCOc1ccc(C(O)(Cc2ccc(Cl)cc2)c2ccc(C)cc2)cc1 (stereo not drawn) [TRIPARANOL] | Active | – | Toxic | Activity (HL-60 [19]): Active; Activity (HL-60 [20]): Active; Activity (HL-60 [17]): Active
> 50 | C[C@H](CO)[C@H]1CC[C@H]2C3=CC[C@H]4C[C@@H](O)CC[C@]4(C)[C@H]3CC[C@]12C | Active | Active | – | Drug uptake (HL-60 [9]): 6 µM; Drug uptake (HL-60 [10]): 1 µM
> 50 | CC(=O)O[C@H]1CC[C@@]2(C)[C@@H](CC=C3[C@@H]2CC[C@]2(C)[C@@H]([C@H](C)CN)CC[C@@H]32)C1 | Active | Active | – | –
> 50 | CNC(=O)[C@@H](C)[C@H]1CC[C@H]2C3=CC[C@H]4C[C@@H](OC(C)=O)CC[C@]4(C)[C@H]3CC[C@]12C | Active | Active | – | –
> 50 | CCC(=O)NC[C@@H](C)[C@H]1CC[C@H]2C3=CC[C@H]4C[C@@H](OC(C)=O)CC[C@]4(C)[C@H]3CC[C@]12C | Active | Active | – | –
18 | CCONC(=O)[C@@H](C)[C@H]1CC[C@H]2C3=CC[C@H]4C[C@@H](OC(C)=O)CC[C@]4(C)[C@H]3CC[C@]12C | – | – | Toxic | Activity (HL-60 [14]): inactive
20 | CNC[C@@H](C)[C@H]1CC[C@H]2C3=CC[C@H]4C[C@@H](OC(C)=O)CC[C@]4(C)[C@H]3CC[C@]12C | Active | – | Toxic | Activity (HL-60 [19]): Active; Activity (HL-60 [20]): Active; Activity (HL-60 [17]): Active
> 50 | CC(=O)O[C@H]1CC[C@@]2(C)[C@@H](CC=C3[C@@H]2CC[C@]2(C)[C@@H]([C@H](C)C(=O)O)CC[C@@H]32)C1 | – | – | – | Activity (HL-60 [14]): inactive; Activity (HL-60 [15]): inactive
47 | CC(=O)O[C@H]1CC[C@@]2(C)[C@@H](CC=C3[C@@H]2CC[C@]2(C)[C@@H]([C@H](C)C(=O)N(C)CC(C)C)CC[C@@H]32)C1 | – | Active | – | Activity (HL-60 [14]): inactive
16 | CN1CCN(CCCN2c3ccccc3Sc3ccc(C(F)(F)F)cc32)CC1 [TRIFLUOPERAZINE HYDROCHLORIDE] | Active | Active | – | Activity (HL-60 [21]): Active; Activity (HL-60 [17]): Active; INH [22]: 1 to 50 µM
10 | C/C=C/C(=O)OC[C@@H](C)[C@H]1CC[C@H]2C3=CC[C@H]4C[C@@H](OC(C)=O)CC[C@]4(C)[C@H]3CC[C@]12C | Active | – | Toxic | –

SMILES | IC50 (HL-60 [4]) [µM] | Activity (HL-60 [8]) | Activity (HL-60 [11]) | Activity (HL-60 [12]) | further results
CC(=O)O[C@H]1CC[C@@]2(C)[C@@H](CC=C3[C@@H]2CC[C@]2(C)[C@@H]([C@H](C)COC=O)CC[C@@H]32)C1 | > 50 | Active | Active | – | Drug metabolism [1]: Metabolite_Notdetected; Activity (Mus musculus [2]): Non-Toxic; Activity (Mus musculus [3]): 1 µg/mL; Activity (Mus musculus [5]): Non-Toxic; Activity (Mus musculus [6]): Non-Toxic; Activity (Mus musculus [7]): Active; Drug uptake (HL-60 [9]): 2 µM; Drug uptake (HL-60 [10]): 1 µM
C[C@H](O)[C@H]1CC[C@H]2[C@@H]3CC=C4C[C@@H](O)CC[C@]4(C)[C@H]3CC[C@]12C | > 50 | – | – | – | Activity (HL-60 [14]): inactive; Activity (HL-60 [15]): inactive
CCN(CC)CCO[C@H]1CC[C@@]2(C)C(=CC[C@@H]3[C@@H]2CC[C@]2(C)C(=O)CC[C@@H]32)C1 | > 50 | – | – | – | –
C[C@H](CCC(=O)N(C)C)[C@H]1CC[C@H]2[C@@H]3CC=C4C[C@@H](O)CC[C@]4(C)[C@H]3CC[C@]12C | > 50 | Active | Active | – | –
